The results in this text go back to US9649295B2, “Chemical inhibitors of soluble adenylyl cyclase (sAC)” (Cornell Research Foundation, Inc., priority 2004, dated 2017).

One data set has as its system Candida albicans. Kind of data set: CO2 induced differentiation of Candida albicans into the filamentous stage. Format: cell-based. To be noted: similar dose dependency as on JR3. From the text: (§1) . FIG. 17A illustrates the bicarbonate dependence of the JR3 fragment; […];
Another data set has as its system INS-1E cells. Briefly: transferrin recycling in INS-1E cells. To be noted: 30 minutes, KH7 30 μM. Type of data set: cell-based. On the procedure:
(§2) Briefly, cells (passage 140-150) were plated at 2.5×10^5 cells/well in a 24 well plate and permitted to recover for two days. Cells were glucose starved by incubation for 1 hour in the presence of 2.5 mM glucose KRB medium supplemented with 2 mM sodium bicarbonate, 10 mM Hepes, and 0.1% BSA. After washing, cells were incubated in KRB with either 2.5 mM or 16 mM glucose in the presence of either vehicle control (DMSO or MeOH) or indicated drug. After the indicated time, removed media was cleared of cell debris and secreted insulin was measured by Insulin ELISA kit (Linco Research, St. Charles, Mo., or ALPCO, Windham, N.H.). If cAMP was to be concomitantly measured, cells were pre-treated with IBMX for the final 10 minutes of the glucose starvation and IBMX was included in all subsequent incubations. For the washout experiment, subsequent to initial insulin determination, cells treated with KH7 were placed in fresh KRB (2.5 mM glucose) for an additional hour and insulin release was measured as above in the absence of any added drug. For transferrin recycling, loading of cells with I^125 transferrin was performed during hour incubation in 2.5 mM glucose KRB.

Data set [1] has as its target catalytic portion of the sAC-like adenylyl cyclase from Candida albicans (fragment JR3) (Candida albicans, UniProt A0A1D8PR83). Kind of data set: biochemical.
Source text: as §1

For data set [2], the target named is T1, purified solubilized version of Type VII tmAC (sol.AC7) (Homo sapiens, UniProt P51828).
T1 construct: a mixture of purified catalytic domains, C1 and C2, from Type VII tmAC; made in house
T1 sequence (P51828 279-406 limits assumed): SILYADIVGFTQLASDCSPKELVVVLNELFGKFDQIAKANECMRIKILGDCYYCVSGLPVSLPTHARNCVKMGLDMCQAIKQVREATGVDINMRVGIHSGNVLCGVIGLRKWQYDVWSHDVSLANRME
T1 sequence (P51828 879-1023 limits assumed): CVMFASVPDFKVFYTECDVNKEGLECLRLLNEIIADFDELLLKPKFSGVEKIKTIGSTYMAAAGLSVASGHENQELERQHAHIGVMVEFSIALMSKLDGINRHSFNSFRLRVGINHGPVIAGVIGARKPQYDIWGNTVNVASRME
Kind of data set: in vitro cyclase activity of purified solubilized Type VII tmAC. Format: biochemical. To be noted: read-out: in vitro IC50 pure sol.AC7.

Data set [3] is described as follows: toxicity observation and post-mortem analysis in mice. Type of data set: in vivo, mouse. To be noted: single injection.
A further data set deals with cAMP in INS-1E cells. Briefly: intracellular cAMP in INS-1E cells. Format: cell-based. The method, then: as §2

catalytic portion of the sAC-like adenylyl cyclase from Candida albicans (fragment JR3), sequence (A0A1D8PR83 entry or part of it): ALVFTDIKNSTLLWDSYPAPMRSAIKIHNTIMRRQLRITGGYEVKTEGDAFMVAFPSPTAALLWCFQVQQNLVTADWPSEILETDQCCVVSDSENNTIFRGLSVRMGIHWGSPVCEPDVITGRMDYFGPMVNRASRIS

For orientation: IC50 means the concentration at which inhibition is half-maximal. Regarding `CC(Sc1nc2ccccc2[nH]1)C(=O)N/N=C/c1cc(Br)ccc1O` (stereo not shown) [KH7], in the data set on Candida albicans, the “effect on CO2 induced differentiation into the filamentous, infectious stage” value is listed as “dose dependently inhibited”. Further, the “effect on transferrin recycling” value with INS-1E cells is given as “unaffected”; with INS-1E cells (listed as K17) it was “does not affect”. For the same compound, the results for the IC50 in data set [1] and in data set [2] were roughly 23 µM and greater than 55 µM, respectively. The “behavior or stressful responses to injection” value in data set [3] is “did not elicit any behavior or stressful responses inconsistent with a simple saline injection”. Also, the toxicity to mice entry in data set [3] is listed as “did not appear to be toxic”. Moreover, the “anatomical, histological, and blood post-mortem analysis” value in data set [3] (within 48 hours after drug treatment) is given as “no significant toxicology or histological pathology”. The “IC50 for blocking glucose-induced cAMP, compared with sAC inhibition” value in the data set on cAMP in INS-1E cells is recorded as “matched its dose response of sAC inhibition”. In addition, in the data set on cAMP in INS-1E cells (16 mM glucose, 30 μM KH7, 30 μM KH7.15, 50 μM 2-hydroxyestradiol, 50 μM 2′5′ddAdo), the “effect on cAMP induced by high glucose” value is recorded as “blocked the cAMP induced by the presence of high glucose”.
